Values joined by “and” are separate entries in the source; they are usually repeats but may differ in a detail not shown here. Equal entries are not always repeated. “Also recorded” adds a separate entry of the source. Where two headings read alike, the source gives them in different places.
Tests used:
patients with HE [1] = conditions: rifaximin 1200 mg/day, neomycin 3 g/day; cited from earlier work
[2] = system: patients with hepatic encephalopathy; assay: First study: adverse events, rifaximin 550 mg BID; assay type: in vivo, human
Source text: Ninety-one percent of patients in the trial were taking lactulose concomitantly. […] (These include adverse events that may be attributable to the underlying disease.)
The following includes adverse events occurring at a greater incidence than placebo, regardless of causal relationship to drug exposure.
A total of 79.9% of subjects (239 of 299) experienced TEAEs during the course of the study.

clinical = conditions: human, in vivo
Source text: Results from the current study were compared with historical data from subjects with normal hepatic function.

rabbits = conditions: rabbit, in vivo
cytochrome P450 2D6 = target: T1, cytochrome P450 2D6 (Homo sapiens, UniProt P10635); assay: In vitro cytochrome P450 inhibition; assay type: in vitro ADME; conditions: 2 to 200 ng/mL
T1 construct: from tissue; host or cells: human liver fractions

[3] = system: Gram-positive and Gram-negative bacteria, such as Escherichia coli; assay: In vitro antibacterial activity / susceptibility (NCCLS agar dilution M7-A6); assay type: cell-based
Description: In vitro susceptibility testing was performed according to the National Committee for Clinical Laboratory Standards (NCCLS) agar dilution method M7-A612.
Methods for dilution antimicrobial susceptibility tests for bacteria that grow aerobically. National Committee for Clinical Laboratory Standards, Sixth Edition, Wayne Pa. Approved Standard NCCLS Document M7-A6 Jan.

[4] = system: subjects in remission from hepatic encephalopathy (HE); assay: First study: HE-related, HE-caused and all-cause hospitalization; assay type: in vivo, human; conditions: for Probability of no HE-related hospitalization: Kaplan-Meier; for Probability of no HE-related hospitalization / Cumulative number of events (HE-related hospitalization) / Event probability (HE-related hospitalization during the treatment interval) / Number of events (HE-related hospitalization): ITT, N = 140
Source text: The analysis of time to first HE-related hospitalization was based on the comparison of time to hospitalization between rifaximin and placebo.
FIG. 9 illustrates time to first HE-related hospitalization (e.g., hospitalization directly resulting from HE or hospitalization caused by HE) by treatment group in the ITT population in the first study. Table 19 presents estimates of the proportions of subjects who had their first HE-related hospitalization over the course of the Treatment Period and results of statistical analyses. Subjects who discontinued prior to hospitalization due to HE and prior to completion of the 6-month treatment period were censored at the time of discontinuation. […] This hazard ratio represents a 50% reduction, when compared with placebo, in the risk of hospitalization due to HE during the 6-month treatment period.
FIG. 5 illustrates time to first HE-caused hospitalizations by treatment group in the first study.

rat hepatocyte = assay type: cell-based
rats = assay: in vivo; conditions: rat
Description: (§1) However, plasma drug levels were not measured in these studies. […] The maximum plasma AUC0-8 hr values from the 6 month rat and 9 month dog toxicity studies (range: 42-127 ng·h/mL) was lower than the maximum plasma AUC0-8 hr values in cirrhotic patients (range: 19-306 ng·h/mL).

in vivo = conditions: rat
Description: as §1

patients with HE [5] = assay type: in vivo, human
Source text: Total number of hospitalizations, duration of hospitalizations, HE endpoints, and cost of therapy were compared between the 2 treatment regimens.

in vitro = conditions: human, plasma
[6] = treatment interval 0 to <28 days
[7] = treatment interval 28 to <56 days
[8] = treatment interval 56 to <84 days
[9] = treatment interval 84 to <140 days
[10] = treatment interval 140 to <168 days

T1 sequence (P10635 whole entry): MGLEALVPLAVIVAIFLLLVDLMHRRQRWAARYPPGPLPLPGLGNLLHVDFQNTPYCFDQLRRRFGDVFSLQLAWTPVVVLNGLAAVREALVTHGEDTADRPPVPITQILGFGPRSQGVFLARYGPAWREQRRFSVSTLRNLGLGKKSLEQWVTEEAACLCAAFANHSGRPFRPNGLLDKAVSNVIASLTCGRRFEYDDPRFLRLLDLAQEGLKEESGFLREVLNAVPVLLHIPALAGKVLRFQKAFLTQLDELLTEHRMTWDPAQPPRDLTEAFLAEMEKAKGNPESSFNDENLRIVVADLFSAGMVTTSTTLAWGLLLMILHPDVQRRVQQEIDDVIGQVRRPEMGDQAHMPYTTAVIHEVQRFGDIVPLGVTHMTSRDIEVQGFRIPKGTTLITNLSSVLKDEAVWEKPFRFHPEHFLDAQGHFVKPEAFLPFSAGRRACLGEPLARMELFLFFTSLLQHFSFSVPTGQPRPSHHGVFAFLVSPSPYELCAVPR

CO[C@H]1/C=C/O[C@@]2(C)Oc3c(C)c(O)c4c(O)c(c5c(nc6cc(C)ccn65)c4c3C2=O)NC(=O)/C(C)=C\C=C\[C@H](C)[C@H](O)[C@@H](C)[C@@H](O)[C@@H](C)[C@H](OC(C)=O)[C@@H]1C [rifaximin, (2S,16Z,18E,20S,21S,22R,23R,24R,25 S,26S,27S,28E)-5,6,21,23,25-pentahydroxy-27-methoxy-2,4,11,16,20,22,24,26-octamethyl-2,7-(epoxypentadeca-[1,11,13]trienimino)benzofuro[4,5-e]pyrido[1,2-á]-benzimidazole-1,15(2H)-dione,25-acetate]
efficacy in patients with HE (patients with HE [1]): comparable efficacy | Abdominal distension ([2]; 550 mg BID, N = 140): 11 (7.9%) Number (%) of Patients | Abdominal pain ([2]; 550 mg BID, N = 140): 12 (8.6%) Number (%) of Patients | Abdominal pain upper ([2]; 550 mg BID, N = 140): 9 (6.4%) Number (%) of Patients | Anemia ([2]; 550 mg BID, N = 140): 11 (7.9%) Number (%) of Patients | Arthralgia ([2]; 550 mg BID, N = 140): 9 (6.4%) Number (%) of Patients | Ascites ([2]; 550 mg BID, N = 140): 16 (11.4%) Number (%) of Patients | Back pain ([2]; 550 mg BID, N = 140): 9 (6.4%) Number (%) of Patients | Constipation ([2]; 550 mg BID, N = 140): 9 (6.4%) Number (%) of Patients | Cough ([2]; 550 mg BID, N = 140): 10 (7.1%) Number (%) of Patients | Depression ([2]; 550 mg BID, N = 140): 10 (7.1%) Number (%) of Patients | Dizziness ([2]; 550 mg BID, N = 140): 18 (12.9%) Number (%) of Patients | Dyspnea ([2]; 550 mg BID, N = 140): 9 (6.4%) Number (%) of Patients | Edema peripheral ([2]; 550 mg BID, N = 140): 21 (15.0%) Number (%) of Patients | Fatigue ([2]; 550 mg BID, N = 140): 17 (12.1%) Number (%) of Patients | Insomnia ([2]; 550 mg BID, N = 140): 10 (7.1%) Number (%) of Patients | Muscle spasms ([2]; 550 mg BID, N = 140): 13 (9.3%) Number (%) of Patients | Nasopharyngitis ([2]; 550 mg BID, N = 140): 10 (7.1%) Number (%) of Patients | Nausea ([2]; 550 mg BID, N = 140): 20 (14.3%) Number (%) of Patients | Pruritus ([2]; 550 mg BID, N = 140): 13 (9.3%) Number (%) of Patients | Pyrexia ([2]; 550 mg BID, N = 140): 9 (6.4%) Number (%) of Patients | Rash ([2]; 550 mg BID, N = 140): 7 (5.0%) Number (%) of Patients | TEAE ascites ([2]; first study): 11.4% | TEAE diarrhea ([2]; first study): 10.7% | TEAE dizziness ([2]; first study): 12.9% | TEAE fatigue ([2]; first study): 12.1% | TEAE headache ([2]; first study): 10% | TEAE nausea ([2]; first study): 14.3% | TEAE peripheral edema ([2]; first study): 15% | early study discontinuation due to adverse reactions ([2]; in vivo): 6% | Cmax (clinical): < 4 ng/mL | AUC (clinical; 550 mg): 0.0123 µg·h/mL | toxic effects (rabbits): negligible toxic effects | inhibition of 2D6 (cytochrome P450 2D6): did not inhibit | in vitro antibacterial activity [3]: active | in vitro antibacterial activity ([3]; listed as Rifaximin): in vitro antimicrobial activity; also recorded: broad spectrum of in vitro antibacterial activity | reduction in risk of HE-caused hospitalization vs placebo ([4]; 6-month treatment): 56% | reduction in risk of HE-related hospitalization vs placebo ([4]; 6-month treatment): 50% | Probability of no HE-related hospitalization [4, 6]: 1.0000 | Probability of no HE-related hospitalization [4, 7]: 0.9711 | Probability of no HE-related hospitalization [4, 8]: 0.9411 | Probability of no HE-related hospitalization [4, 9]: 0.0904 | Probability of no HE-related hospitalization [4, 10]: 0.8665 | Probability of no HE-related hospitalization ([4]; treatment interval ≧168 days): 0.8475 | Survival ([4]; Table 4, N = 140, days r11-r21 as E901): 1.0000 and 0.9564 and 0.9258 and 0.8848 and 0.8403 and 0.8108 | Survival ([4]; Table 17, days r10-r15 as E2201): 1.0000 and 0.9711 and 0.9411 and 0.9094 and 0.8665 and 0.8475 | HE-caused hospitalization rate ([4]; first study): 0.30 events/PEY | HE-related hospitalization rate lower than placebo ([4]; in vivo): 51% | reduction in risk of all-cause hospitalization vs placebo ([4]; in vivo): 30% | subjects with HE-caused hospitalizations ([4]; in vivo): 15 of 140 | subjects with all-cause hospitalization ([4]; in vivo): 46 of 140 | time to first HE related hospitalization vs placebo (FIG. 3) ([4]; in vivo): increased time to hospitalization | HE-related hospitalization rate ([4]; normalized to exposure): 0.38 event/PEY | Cumulative number of events (HE-related hospitalization) [4, 6]: 4 | Event probability (HE-related hospitalization during the treatment interval) [4, 6]: 0.03 | Number of events (HE-related hospitalization) [4, 6]: 4 | Cumulative number of events (HE-related hospitalization) [4, 7]: 8 | Event probability (HE-related hospitalization during the treatment interval) [4, 7]: 0.03 | Number of events (HE-related hospitalization) [4, 7]: 4 | Cumulative number of events (HE-related hospitalization) [4, 8]: 12 | Event probability (HE-related hospitalization during the treatment interval) [4, 8]: 0.03 | Number of events (HE-related hospitalization) [4, 8]: 4 | Cumulative number of events (HE-related hospitalization) [4, 9]: 17 | Event probability (HE-related hospitalization during the treatment interval) [4, 9]: 0.05 | Number of events (HE-related hospitalization) [4, 9]: 5 | Cumulative number of events (HE-related hospitalization) [4, 10]: 19 | Event probability (HE-related hospitalization during the treatment interval) [4, 10]: 0.02 | Number of events (HE-related hospitalization) [4, 10]: 2 | Cumulative number of events (HE-related hospitalization) ([4]; treatment interval ≧168 days): 19 | Event probability (HE-related hospitalization during the treatment interval) ([4]; treatment interval ≧168 days): 0 | Number of events (HE-related hospitalization) ([4]; treatment interval ≧168 days): 0 | genotoxicity (rat hepatocyte): not genotoxic | toxic effects (rats): negligible toxic effects | AUC(0-t) (in vivo): 0.042 to 0.127 µg·h/mL | patients with Conn scores of 3 or 4 (patients with HE [5]; end of treatment period): 6% | days hospitalized (patients with HE [5]; human, in vivo): 2.5 days | hospitalizations due to HE, cost, HE endpoints vs lactulose (patients with HE [5]; human, in vivo): dramatically reduced | patients with asterixis at end of treatment period (patients with HE [5]; human, in vivo): 63% | hospitalizations (patients with HE [5]; rifaximin 400 mg 3 times/day, lactulose 30 mL twice daily): 0.5 | fraction unbound (in vitro): 0.447

From patent publication US9629828B2, “Methods of treating traveler's diarrhea and hepatic encephalopathy” (priority 2008, dated 2017)
